Data taken from article PMC11203978, “Discovery of Di(het)arylmethane and Dibenzoxanthene Derivatives as Potential Anticancer Agents” (International Journal of Molecular Sciences, 2024).

Key:
HuTu 80 = assay: MTT cytotoxicity, HuTu 80; format: cell-based, human
Excerpt: (§1) Cells and Materials. For the experiments, we used tumor cell cultures M-HeLa clone 11 (epithelioid carcinoma of the cervix, subline HeLa, clone M-HeLa), HuTu 80, human duodenal adenocarcinoma, Hep-2, human epithelial cells, SH-SY5Y, human neuroblast-like cells, A549, human lung adenocarcinoma, PA-1, human ovarian teratocarcinoma and MCF-7, a human mammary ductal adenocarcinoma from the collection of the Institute of Cytology, Russian Academy of Sciences (St. Petersburg, Russia); human liver cells (Chang liver) were from the collection and the Research Institute of Virology of the Russian Academy of Medical Sciences (Moscow, Russia).
MTT Assay. The cytotoxic effect on cells was determined using the colorimetric method of cell proliferation—the MTT test. NADP-H-dependent cellular oxidoreductase enzymes can, under certain conditions, reflect the number of viable cells. These enzymes reduce the tetrazolium dye (MTT) 3-(4,5-dimethylthiazol-2-yl)-2,5-diphenyl-tetrazolium bromide to insoluble blue-violet formazan, which crystallizes inside the cell. The amount of formed formazan is proportional to the number of cells with active metabolism. Cells were seeded on a 96-well Nunc plate at a concentration of 5 × 10^3 cells per well in a volume of 100 μL of medium and cultured in a CO2 incubator at 37 °C until a monolayer was formed. After the nutrient medium was removed, 100 µL of the test drug solutions at the given dilutions were added to the wells, which were prepared directly in the nutrient medium with the addition of 5% DMSO to improve solubility. After 48 h of incubation of the cells with the tested compounds, the nutrient medium was removed from the plates and 100 µL of the nutrient medium without serum with MTT at a concentration of 0.5 mg/mL was added and incubated for 4 h at 37 °C. Formazan crystals were added 100 µL of DMSO to each well. Optical density was recorded at 540 nm on an Invitrologic microplate reader (Novosibirsk, Russia). The experiments for all compounds were repeated three times.
Statistical analysis. The IC50 values were calculated using the MLA–Quest Graph™ IC50 Calculator (AAT Bioquest, Inc., Sunnyvale, CA, USA), 14 February 2022. Statistical analysis was performed with the Mann–Whitney test (p < 0.05). Tabular and graphical data contain averages and standard error.

Hep-2 = assay: MTT cytotoxicity, Hep-2; format: cell-based; conditions: Homo sapiens, read-out: IC50 (µM) Cancer Cell Lines Hep-2
Excerpt: as §1
(§2) MTT Assay. The cytotoxic effect on cells was determined using the colorimetric method of cell proliferation—the MTT test. NADP-H-dependent cellular oxidoreductase enzymes can, under certain conditions, reflect the number of viable cells. These enzymes reduce the tetrazolium dye (MTT) 3-(4,5-dimethylthiazol-2-yl)-2,5-diphenyl-tetrazolium bromide to insoluble blue-violet formazan, which crystallizes inside the cell. The amount of formed formazan is proportional to the number of cells with active metabolism. […] Optical density was recorded at 540 nm on an Invitrologic microplate reader (Novosibirsk, Russia). […]
(§3) Statistical analysis. The IC50 values were calculated using the MLA–Quest Graph™ IC50 Calculator (AAT Bioquest, Inc., Sunnyvale, CA, USA), 14 February 2022. […]

SH-SY5Y = assay: MTT cytotoxicity, SH-SY5Y; format: cell-based; conditions: Homo sapiens, read-out: IC50 (µM) Cancer Cell Lines SH-SY5Y
Excerpt: as §1, §2, §3

A549 = assay: MTT cytotoxicity, A549; format: cell-based; conditions: Homo sapiens, read-out: IC50 (µM) Cancer Cell Lines A549
Excerpt: as §1, §2, §3

PA-1 = assay: MTT cytotoxicity, PA-1; format: cell-based; conditions: Homo sapiens, read-out: IC50 (µM) Cancer Cell Lines PA-1
Excerpt: as §1, §2, §3

MCF-7 = assay: MTT cytotoxicity, MCF-7; format: cell-based; conditions: Homo sapiens, MCF7, read-out: IC50 (µM) Cancer Cell Lines MCF-7
Excerpt: as §1, §2, §3

HuTu 80 cells [1] = assay: Mitochondrial membrane potential, JC-10 flow cytometry; format: cell-based, human; conditions: 24 h treatment, IC50/2 and IC50
Protocol: In this study, we used the fluorescent dye JC-10 from the Mitochondria Membrane Potential Kit (Sigma, St. Louis, MO, USA). Changes in mitochondrial membrane potential under the influence of lead compounds 5a and 6a were determined at IC50/2 and IC50 concentrations on the HuTu 80 cell line. When JC-10 accumulates in the mitochondrial matrix, it forms fluorescent J-aggregates. Their red fluorescence is characteristic for normal cells with high mitochondrial membrane potential. The reduction in mitochondrial membrane potential in apoptotic cells allows JC-10 to escape out of the mitochondria in a monomeric form which has green fluorescence. The mitochondrial membrane potential of HuTu 80 cells is decreased after 24 h treatment with the lead compounds 5a and 6a. The change becomes more pronounced as the concentrations of the tested compounds approach IC50 (Figure 7).
Cell Culture. HuTu 80 cells at 1 × 10^6 cells/well in a final volume of 2 mL were seeded into six-well plates. After 48 h of incubation, various concentrations of lead compounds were added to wells.
Mitochondrial Membrane Potential. […] After the cells were rinsed three times and suspended in PBS, the JC-10 fluorescence was observed using flow cytometry (Guava easy Cyte, MERCK, Rahway, NJ, USA).

HuTu 80 cells [2] = assay: Intracellular ROS, CellROX Deep Red flow cytometry; format: cell-based, human; conditions: IC50/2 and IC50
Protocol: The apoptosis via the mitochondrial pathway also increases the production of reactive oxygen species (ROS). As mitochondria itself becomes the target of ROS, an increase in their production disrupts mitochondrial functions and culminates in irreversible cell damage. Therefore, the effect of lead compounds 6a and 5a at IC50/2 and IC50 concentrations on ROS production in HuTu 80 cells was evaluated using flow cytometry. […] Such an effect is not observed for intact cells in the presence of both compounds, indicating an increase in ROS production in cancer tissues.
Detection of Intracellular ROS. HuTU 80 cells were incubated with lead compounds at concentrations of IC50/2 and IC50 for 48 h. ROS generation was investigated using flow cytometry assay and CellROX® Deep Red flow cytometry kit. For this purpose, […] cells were harvested at 2000 rpm for 5 min and then washed twice with ice-cold PBS, followed by resuspension in 0.1 mL of medium without FBS, to which was added 0.2 μL of CellROX® Deep Red, which was followed by incubation at 37 °C for 30 min. The cells were washed three times and suspended in PBS. After that, the production of ROS in the cells was immediately monitored using flow cytometer (Guava easy Cyte, MERCK, Rahway, NJ, USA).

`O=C(C[P+](c1ccccc1)(c1ccccc1)c1ccccc1)NCCC1c2c(ccc3ccccc23)Oc2ccc3ccccc3c21` [Compound 6a] was tested. Which IC50 (HuTu 80; Homo sapiens, HuTu80, 48 h, MTT, 48 h incubation, read-out: IC50 (µM) Cancer Cell Lines HuTu 80) did it give?
The IC50 was 1.7 ± 0.1 µM.

And the “times more effective / more cytotoxic than the reference drug sorafenib” value (HuTu 80; HuTu 80)?
Its value is “three times more effective”.

And the IC50 (Hep-2)?
The IC50 was 2.34 ± 0.01 µM.

What about the IC50 (SH-SY5Y) of the same compound?
The IC50 was 10.9 ± 0.23 µM.

And the IC50 (A549)?
Its IC50 is 5.47 ± 0.07 µM.

And the IC50 (PA-1)?
The IC50 was 11.2 ± 1.36 µM.

What about the IC50 (MCF-7) of the same compound?
Its IC50 is 7.12 ± 0.76 µM.

And the “mitochondrial membrane potential (in words)” value (HuTu 80 cells [1])?
The value was “decreased”.

And the “ROS production, CellROX Deep Red fluorescence intensity (in words)” value (HuTu 80 cells [2])?
Its value is “significant reliable increase”.
